Test results as given in ChEMBL document CHEMBL1201862, “PubChem BioAssay data set” (2004).
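Results reflect a 48-hour exposure of cells in 96-well plates to compound at five concentrations. The concentration for 50% growth inhibition is given as GI50.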 Activity calls are given as the source filed them. Cut-off read from the data, not from the text of the source: active = GI50 up to about 1.1 µM and inactive = higher.

Key:
Assay in all cases: NCI-60 cell line screen, 48 h
[1] = system: PC-3
[2] = system: 786-0
[3] = system: Malme-3M
[4] = system: UO-31
[5] = system: HCT-116
[6] = system: T47D
[7] = system: A498
[8] = system: HCT-15
[9] = system: MDA-MB-231
[10] = system: ACHN
[11] = system: RPMI-8226
[12] = system: SK-MEL-2
[13] = system: NCI-H460
[14] = system: MDA-N
[15] = system: SNB-19
[16] = system: KM12
[17] = system: MCF7
[18] = system: MDA-MB-435
[19] = system: A549
[20] = system: LOX IMVI
[21] = system: RXF 393
[22] = system: BT-549
[23] = system: COLO 205
[24] = system: IGROV-1
[25] = system: SK-MEL-28
[26] = system: SK-OV-3
[27] = system: SN12C
[28] = system: CAKI-1
[29] = system: OVCAR-5
[30] = system: SF-295
[31] = system: M14
[32] = system: SF-268
[33] = system: NCI-H226
[34] = system: HOP-62
[35] = system: TK-10
[36] = system: CCRF-CEM
[37] = system: NCI/ADR-RES
[38] = system: SW-620
[39] = system: SK-MEL-5
[40] = system: UACC-257
[41] = system: HCC 2998
[42] = system: OVCAR-4
[43] = system: NCI-H23
[44] = system: OVCAR-8
[45] = system: SNB-75
[46] = system: U-251
[47] = system: SF-539
[48] = system: NCI-H522
[49] = system: EKVX
[50] = system: UACC-62
[51] = system: HL-60
[52] = system: Hs-578T
[53] = system: HT-29
[54] = system: K562
[55] = system: OVCAR-3
[56] = system: MOLT-4
[57] = system: DU-145
[58] = system: HOP-92
[59] = system: SR

N#Cc1c(-c2ccccc2)c(/C=N/c2cccc(C(F)(F)F)c2)c(=O)n2c1[nH]c1ccccc12
GI50 [1]: 31 µM (inactive) | GI50 [2]: 36.1 µM (inactive) | GI50 [3]: 42.3 µM (inactive) | GI50 [4]: 7.62 µM (inactive) | GI50 [5]: 29.6 µM (inactive) | GI50 [6]: 35.2 µM (inactive) | GI50 [7]: 34.4 µM (inactive) | GI50 [8]: 33 µM | GI50 [9]: 42.3 µM (inactive) | GI50 [10]: 30.1 µM (inactive) | GI50 [11]: 6.35 µM (inactive) | GI50 [12]: 22.1 µM (inactive) | GI50 [13]: 14.5 µM (inactive) | GI50 [14]: 28 µM (inactive) | GI50 [15]: 30.5 µM (inactive) | GI50 [16]: 19.4 µM (inactive) | GI50 [17]: 35.6 µM (inactive) | GI50 [18]: 39.5 µM (inactive) | GI50 [19]: 23.6 µM (inactive) | GI50 [20]: 32.6 µM (inactive) | GI50 [21]: 32.8 µM (inactive) | GI50 [22]: 48 µM (inactive) | GI50 [23]: > 100 µM (inactive) | GI50 [24]: 29.2 µM (inactive) | GI50 [25]: 59 µM (inactive) | GI50 [26]: 26.9 µM (inactive) | GI50 [27]: 17.4 µM (inactive) | GI50 [28]: 2.07 µM (inactive) | GI50 [29]: 10.8 µM (inactive) | GI50 [30]: 46.2 µM (inactive) | GI50 [31]: 32.3 µM (inactive) | GI50 [32]: 35.6 µM (inactive) | GI50 [33]: 26.7 µM (inactive) | GI50 [34]: 30.5 µM (inactive) | GI50 [35]: 32.9 µM (inactive) | GI50 [36]: 40.4 µM (inactive) | GI50 [37]: 25.1 µM (inactive) | GI50 [38]: 30.2 µM (inactive) | GI50 [39]: 52 µM (inactive) | GI50 [40]: 32.5 µM (inactive) | GI50 [41]: 30.8 µM (inactive) | GI50 [42]: 51.1 µM (inactive) | GI50 [43]: 34.9 µM (inactive) | GI50 [44]: 24.8 µM (inactive) | GI50 [45]: 46 µM (inactive) | GI50 [46]: 45 µM (inactive) | GI50 [47]: 16.7 µM (inactive) | GI50 [48]: 15.1 µM (inactive) | GI50 [49]: 19.1 µM (inactive)

c1ccc(/N=C(\N2CCCC2)N(CCN2CCCC2)c2ccccc2)cc1
GI50 [1]: 5.5 µM (inactive) | GI50 [50]: 16.6 µM (inactive) | GI50 [2]: 43.2 µM (inactive) | GI50 [3]: > 100 µM (inactive) | GI50 [4]: 14.8 µM (inactive) | GI50 [5]: 1.83 µM (inactive) | GI50 [6]: 28.8 µM (inactive) | GI50 [51]: 2.91 µM (inactive) | GI50 [52]: 18.9 µM (inactive) | GI50 [53]: 1.84 µM (inactive) | GI50 [54]: 3.8 µM (inactive) | GI50 [8]: 22.1 µM | GI50 [10]: 40 µM (inactive) | GI50 [11]: 47.8 µM (inactive) | GI50 [12]: 64.9 µM (inactive) | GI50 [13]: 10.3 µM (inactive) | GI50 [55]: 20 µM (inactive) | GI50 [56]: 3.98 µM (inactive) | GI50 [15]: > 100 µM (inactive) | GI50 [16]: 11 µM (inactive) | GI50 [17]: 13.5 µM (inactive) | GI50 [18]: 7.67 µM (inactive) | GI50 [57]: > 10 µM (inactive) | GI50 [58]: 22.6 µM (inactive) | GI50 [19]: 56.6 µM (inactive) | GI50 [20]: 2.86 µM (inactive) | GI50 [22]: 15.6 µM (inactive) | GI50 [23]: 7.33 µM (inactive) | GI50 [24]: 24.9 µM (inactive) | GI50 [25]: > 100 µM (inactive) | GI50 [26]: 63.4 µM (inactive) | GI50 [27]: 29.8 µM (inactive) | GI50 [28]: 53.5 µM (inactive) | GI50 [29]: 29.6 µM (inactive) | GI50 [30]: 6.32 µM (inactive) | GI50 [31]: 8.34 µM (inactive) | GI50 [32]: > 10 µM (inactive) | GI50 [59]: 13.2 µM (inactive) | GI50 [33]: 23.7 µM (inactive) | GI50 [34]: 9.79 µM (inactive) | GI50 [35]: 30.8 µM (inactive) | GI50 [36]: 5.93 µM (inactive) | GI50 [37]: 37 µM (inactive) | GI50 [38]: 11.4 µM (inactive) | GI50 [39]: 12.2 µM (inactive) | GI50 [40]: 21 µM (inactive) | GI50 [42]: 32.1 µM (inactive) | GI50 [43]: 11.1 µM (inactive) | GI50 [44]: 24.4 µM (inactive) | GI50 [45]: 14.4 µM (inactive) | GI50 [46]: 29.9 µM (inactive) | GI50 [48]: 11.3 µM (inactive) | GI50 [49]: 73.3 µM (inactive)
